The results in this text go back to patent US20240269067A1 (GEL4MED, INC., priority 2020, published 2024).

A short description of the data set: Net charge and isoelectric point of peptide. The data set is classed as physicochemical. As to conditions: pH 7. The text has this:
The peptide may be purified. For example, the peptide may be lyophilized. […] Other peptides are within the scope of the disclosure.
Exemplary peptides having a charge of +5 to +9 include […](d)[…], […](d)[…], and […](d)[…]. In other embodiments, the purified peptide may be substantially neutral. […] Net charge may be selected by peptide design. Design of electrostatic charge in the peptide hydrogel may allow control of charge interaction with cell membrane and proteins.

In the case of VEVSVSVEV(d)PPTEVSVEVEV, the net charge result is given as “net negative charge”.
